Measurements reported in US20230295096A1, “PYRAZOLE CARBOXAMIDE COMPOUNDS FOR TREATMENT OF HBV” (ASSEMBLY BIOSCIENCES, INC., priority 2020, published 2023).

Each compound was assayed on HBV (assay: Viral load production from HepAD38 cells, qPCR of the HBV core sequence in supernatant). Conditions: Hepatitis B virus, HePAD38, 120 h, HepAD38 cells, 5 days, HBV DNA in supernatant by qPCR; Table 1 ranges; read-out: Activity (viral load lowering EC50).
Format: cell-based
How it was run: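 EC50 and CC50 come from four-parameter logistic fits of supernatant HBV core DNA (TaqMan qPCR, DNA standards, compared with DMSO wells) and of CellTiter-Glo luminescence.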

Compound | EC50
CNC(=O)NCC1CC2CC(c3nn(C)c(N)c3C(=O)Nc3ccc(F)c(Cl)c3)CC2C1 (stereo not shown) [Example 49, 5-Amino-N-(3-chloro-4-fluorophenyl)-1-methyl-3-(5-((3-methylureido)methyl)octahydropentalen-2-yl)-1H-pyrazole-4-carboxamide] | < 0.01 µM
Cn1nc(C2CC3CC(CNC(=O)C4CCOCC4)CC3C2)c(C(=O)Nc2ccc(F)c(Cl)c2)c1N (stereo not shown) [Example 50, 5-Amino-N-(3-chloro-4-fluorophenyl)-1-methyl-3-(5-((tetrahydro-2H-pyran-4-carboxamido)methyl)octahydropentalen-2-yl)-1H-pyrazole-4-carboxamide] | < 0.01 µM
CC1CCC(C(=O)NCC2CC3CC(c4nn(C)c(N)c4C(=O)Nc4ccc(F)c(Cl)c4)CC3C2)CC1 (stereo not shown) [Example 51, 5-Amino-N-(3-chloro-4-fluorophenyl)-1-methyl-3-(5-((4-methylcyclohexane-1-carboxamido)methyl)octahydropentalen-2-yl)-1H-pyrazole-4-carboxamide] | 0.01 to 0.05 µM
C#CCCC(=O)NCC1CC2CC(c3nn(C)c(N)c3C(=O)Nc3ccc(F)c(Cl)c3)CC2C1 (stereo not shown) [Example 52, 5-Amino-N-(3-chloro-4-fluorophenyl)-1-methyl-3-(5-(pent-4-ynamidomethyl)octahydropentalen-2-yl)-1H-pyrazole-4-carboxamide] | < 0.01 µM
Cn1nc(C2CC3CC(CNC(=O)C4CCC(F)(F)CC4)CC3C2)c(C(=O)Nc2ccc(F)c(Cl)c2)c1N (stereo not shown) [Example 53, 5-Amino-N-(3-chloro-4-fluorophenyl)-3-(5-((4,4-difluorocyclohexane-1-carboxamido)methyl)octahydropentalen-2-yl)-1-methyl-1H-pyrazole-4-carboxamide] | < 0.01 µM
CC(=O)NCC1CC2CC(c3nn(C)c(N)c3C(=O)Nc3ccc(F)c(Cl)c3)CC2C1 (stereo not shown) [Example 54, 3-(5-(Acetamidomethyl)octahydropentalen-2-yl)-5-amino-N-(3-chloro-4-fluorophenyl)-1-methyl-1H-pyrazole-4-carboxamide] | < 0.01 µM
Cn1nc(C2CC3CC(CNC(=O)CC(F)(F)F)CC3C2)c(C(=O)Nc2ccc(F)c(Cl)c2)c1N (stereo not shown) [Example 55, 5-Amino-N-(3-chloro-4-fluorophenyl)-1-methyl-3-(5-((3,3,3-trifluoropropanamido)methyl)octahydropentalen-2-yl)-1H-pyrazole-4-carboxamide] | < 0.01 µM
Cn1nc(C2CC3CC(CNC(=O)CCC(C)(C)C)CC3C2)c(C(=O)Nc2ccc(F)c(Cl)c2)c1N (stereo not shown) [Example 56, 5-Amino-N-(3-chloro-4-fluorophenyl)-3-(5-((4,4-dimethylpentanamido)methyl)octahydropentalen-2-yl)-1-methyl-1H-pyrazole-4-carboxamide] | < 0.01 µM
Cn1nc(C2CC3CC(CNC(=O)c4ccc(C(F)(F)F)cc4)CC3C2)c(C(=O)Nc2ccc(F)c(Cl)c2)c1N (stereo not shown) [Example 57, 5-Amino-N-(3-chloro-4-fluorophenyl)-1-methyl-3-(5-((4-(trifluoromethyl)benzamido)methyl)octahydropentalen-2-yl)-1H-pyrazole-4-carboxamide] | 0.01 to 0.05 µM
Cn1nc(C2CC3CC(CNC(=O)c4cnc(C(F)(F)F)s4)CC3C2)c(C(=O)Nc2ccc(F)c(Cl)c2)c1N (stereo not shown) [Example 58, N-((5-(5-Amino-4-((3-chloro-4-fluorophenyl)carbamoyl)-1-methyl-1H-pyrazol-3-yl)octahydropentalen-2-yl)methyl)-2-(trifluoromethyl)thiazole-5-carboxamide] | 0.01 to 0.05 µM
Cc1noc(C)c1C(=O)NCC1CC2CC(c3nn(C)c(N)c3C(=O)Nc3ccc(F)c(Cl)c3)CC2C1 (stereo not shown) [Example 59, N-((5-(5-Amino-4-((3-chloro-4-fluorophenyl)carbamoyl)-1-methyl-1H-pyrazol-3-yl)octahydropentalen-2-yl)methyl)-3,5-dimethylisoxazole-4-carboxamide] | < 0.01 µM
Cn1nc(C2CC3CC(CNC(=O)c4ccns4)CC3C2)c(C(=O)Nc2ccc(F)c(Cl)c2)c1N (stereo not shown) [Example 60, N-((5-(5-Amino-4-((3-chloro-4-fluorophenyl)carbamoyl)-1-methyl-1H-pyrazol-3-yl)octahydropentalen-2-yl)methyl)isothiazole-5-carboxamide] | < 0.01 µM
Cn1nc(C2CC3CC(CNC(=O)c4cncc(F)c4)CC3C2)c(C(=O)Nc2ccc(F)c(Cl)c2)c1N (stereo not shown) [Example 61, N-((5-(5-Amino-4-((3-chloro-4-fluorophenyl)carbamoyl)-1-methyl-1H-pyrazol-3-yl)octahydropentalen-2-yl)methyl)-5-fluoronicotinamide] | < 0.01 µM
Cn1nc(C2CC3CC(CNC(=O)C4CCN(C(=O)OC(C)(C)C)CC4)CC3C2)c(C(=O)Nc2ccc(F)c(Cl)c2)c1N (stereo not shown) [Example 62, tert-Butyl 4-(((5-(5-amino-4-((3-chloro-4-fluorophenyl)carbamoyl)-1-methyl-1H-pyrazol-3-yl)octahydropentalen-2-yl)methyl)carbamoyl)piperidine-1-carboxylate] | < 0.01 µM
Cn1nc(C2CC3CC(CNC(=O)C(C)(C)C4CCOCC4)CC3C2)c(C(=O)Nc2ccc(F)c(Cl)c2)c1N (stereo not shown) [Example 63, 5-Amino-N-(3-chloro-4-fluorophenyl)-1-methyl-3-(5-((2-methyl-2-(tetrahydro-2H-pyran-4-yl)propanamido)methyl)octahydropentalen-2-yl)-1H-pyrazole-4-carboxamide] | 0.01 to 0.05 µM
Cn1nc(C2CC3CC(CNC(=O)C4(C)COC4)CC3C2)c(C(=O)Nc2ccc(F)c(Cl)c2)c1N (stereo not shown) [Example 64, 5-Amino-N-(3-chloro-4-fluorophenyl)-1-methyl-3-(5-((3-methyloxetane-3-carboxamido)methyl)octahydropentalen-2-yl)-1H-pyrazole-4-carboxamide] | < 0.01 µM
Cn1nc(C2CC3CC(CNC(=O)C4(C)CC4)CC3C2)c(C(=O)Nc2ccc(F)c(Cl)c2)c1N (stereo not shown) [Example 65, 5-Amino-N-(3-chloro-4-fluorophenyl)-1-methyl-3-(5-((1-methylcyclopropane-1-carboxamido)methyl)octahydropentalen-2-yl)-1H-pyrazole-4-carboxamide] | < 0.01 µM
Cn1nc(C2CC3CC(CNC(=O)C(C)(C)C(F)(F)F)CC3C2)c(C(=O)Nc2ccc(F)c(Cl)c2)c1N (stereo not shown) [Example 66, 5-Amino-N-(3-chloro-4-fluorophenyl)-1-methyl-3-(5-((3,3,3-trifluoro-2,2-dimethylpropanamido)methyl)octahydropentalen-2-yl)-1H-pyrazole-4-carboxamide] | 0.01 to 0.05 µM
Cn1nc(C2CC3CC(CNC(=O)C(C)(C)CO)CC3C2)c(C(=O)Nc2ccc(F)c(Cl)c2)c1N (stereo not shown) [Example 67, 5-Amino-N-(3-chloro-4-fluorophenyl)-3-(5-((3-hydroxy-2,2-dimethylpropanamido)methyl)octahydropentalen-2-yl)-1-methyl-1H-pyrazole-4-carboxamide] | < 0.01 µM
Cn1nc(C2CC3CC(CNC(=O)C4(C)CCC4)CC3C2)c(C(=O)Nc2ccc(F)c(Cl)c2)c1N (stereo not shown) [Example 68, 5-Amino-N-(3-chloro-4-fluorophenyl)-1-methyl-3-(5-((1-methylcyclobutane-1-carboxamido)methyl)octahydropentalen-2-yl)-1H-pyrazole-4-carboxamide] | < 0.01 µM
Cn1nc(C2CC3CC(CNC(=O)C45CC(C4)C5)CC3C2)c(C(=O)Nc2ccc(F)c(Cl)c2)c1N (stereo not shown) [Example 69, 5-Amino-3-(5-((bicyclo[1.1.1]pentane-1-carboxamido)methyl)octahydropentalen-2-yl)-N-(3-chloro-4-fluorophenyl)-1-methyl-1H-pyrazole-4-carboxamide] | < 0.01 µM
Cn1nc(C2CC3CC(CNC(=O)C(C)(C)C4CCN(C(=O)OC(C)(C)C)CC4)CC3C2)c(C(=O)Nc2ccc(F)c(Cl)c2)c1N (stereo not shown) [Example 70, tert-Butyl 4-(1-(((5-(5-amino-4-((3-chloro-4-fluorophenyl)carbamoyl)-1-methyl-1H-pyrazol-3-yl)octahydropentalen-2-yl)methyl)amino)-2-methyl-1-oxopropan-2-yl)piperidine-1-carboxylate] | 0.01 to 0.05 µM
Cn1nc(C2CC3CC(CNC(=O)CCCN4CCCCC4)CC3C2)c(C(=O)Nc2ccc(F)c(Cl)c2)c1N (stereo not shown) [Example 71, 5-Amino-N-(3-chloro-4-fluorophenyl)-1-methyl-3-(5-((4-(piperidin-1-yl)butanamido)methyl)octahydropentalen-2-yl)-1H-pyrazole-4-carboxamide] | 0.01 to 0.05 µM
Cn1nc(C2CC3CC(CNC(=O)CCCN4CCOCC4)CC3C2)c(C(=O)Nc2ccc(F)c(Cl)c2)c1N (stereo not shown) [Example 72, 5-Amino-N-(3-chloro-4-fluorophenyl)-1-methyl-3-(5-((4-morpholinobutanamido)methyl)octahydropentalen-2-yl)-1H-pyrazole-4-carboxamide] | < 0.01 µM
Cn1nc(C2CC3CC(CNC(=O)CCCCCNC(=O)OC(C)(C)C)CC3C2)c(C(=O)Nc2ccc(F)c(Cl)c2)c1N (stereo not shown) [Example 73, tert-Butyl (6-(((5-(5-amino-4-((3-chloro-4-fluorophenyl)carbamoyl)-1-methyl-1H-pyrazol-3-yl)octahydropentalen-2-yl)methyl)amino)-6-oxohexyl)carbamate] | 0.01 to 0.05 µM
Cn1nc(C2CC3CC(CNC(=O)COCCOCCNC(=O)OC(C)(C)C)CC3C2)c(C(=O)Nc2ccc(F)c(Cl)c2)c1N (stereo not shown) [Example 74, tert-Butyl (2-(2-(2-(((5-(5-amino-4-((3-chloro-4-fluorophenyl)carbamoyl)-1-methyl-1H-pyrazol-3-yl)octahydropentalen-2-yl)methyl)amino)-2-oxoethoxy)ethoxy)ethyl)carbamate] | < 0.01 µM
Cn1nc(C2CC3CC(CNC(=O)C4CCNCC4)CC3C2)c(C(=O)Nc2ccc(F)c(Cl)c2)c1N (stereo not shown) [Example 75, N-((5-(5-Amino-4-((3-chloro-4-fluorophenyl)carbamoyl)-1-methyl-1H-pyrazol-3-yl)octahydropentalen-2-yl)methyl)piperidine-4-carboxamide] | 0.01 to 0.05 µM
Cn1nc(C2CC3CC(CNC(=O)C4CCCCC4)CC3C2)c(C(=O)Nc2ccc(F)c(Cl)c2)c1N (stereo not shown) [Example 76, 5-Amino-N-(3-chloro-4-fluorophenyl)-3-(5-(cyclohexanecarboxamidomethyl)octahydropentalen-2-yl)-1-methyl-1H-pyrazole-4-carboxamide] | 0.01 to 0.05 µM
